Source: article PMC8795197, “Safety and activity of WX-0593 (Iruplinalkib) in patients with ALK- or ROS1-rearranged advanced non-small cell lung cancer: a phase 1 dose-escalation and dose-expansion trial” (Signal Transduction and Targeted Therapy, 2022)
Read-outs that look alike come from different tables or passages of the source.

Legend:
Ba/F3 ALK-C1156Y = experiment: Growth of transfected Ba/F3 cells (CellTiter-Glo, 3 days); type: cell-based; conditions: Mus musculus, BaF3; ALK-C1156Y; read-out: IC50
How it was run: (§1)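 Log-phase cells were seeded and left overnight at 37℃, 5% CO2 before compound addition in triplicate (final DMSO 0.1% v/v). After culture, luminescence was read and IC50 obtained by nonlinear sigmoidal dose-response fitting.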

Ba/F3 ALK-F1174L = experiment: as above; type: cell-based; conditions: Mus musculus, BaF3; ALK-F1174L; read-out: IC50
How it was run: as §1

Ba/F3 ALK-G1202del = experiment: as above; type: cell-based; conditions: Mus musculus, BaF3; ALK-G1202del; read-out: IC50
How it was run: as §1

Ba/F3 ALK-I1171N = experiment: as above; type: cell-based; conditions: Mus musculus, BaF3; ALK-I1171N; read-out: IC50
How it was run: as §1

Ba/F3 ALK-I1171S = experiment: as above; type: cell-based; conditions: Mus musculus, BaF3, ALK-I1171S, read-out: IC50
How it was run: as §1

Ba/F3 ALK-I1171T = experiment: as above; type: cell-based; conditions: Mus musculus, BaF3; ALK-I1171T; read-out: IC50
How it was run: as §1

Ba/F3 ALK-L1196M = experiment: as above; type: cell-based; conditions: Mus musculus, BaF3; ALK-L1196M; read-out: IC50
How it was run: as §1

Ba/F3 ALK-T1151Tins = experiment: as above; type: cell-based; conditions: Mus musculus, BaF3; ALK-T1151Tins; read-out: IC50
How it was run: as §1

Ba/F3 ALK-V1180L = experiment: as above; type: cell-based; conditions: Mus musculus, BaF3; ALK-V1180L; read-out: IC50
How it was run: as §1

Ba/F3 CD74-ROS1-D2033N = experiment: as above; type: cell-based; conditions: Mus musculus, BaF3
Experimental: (§2) Harvest cells during the logarithmic growth period and count cells using blood counting chamber. Adjust cell concentration with culture medium. Add 90µl cell suspensions to two 96-well plates to the final cell density as described before. Incubate the plate overnight in humidified incubator at 37℃ with 5% CO2. Dispense 10µl drug solution (10×) to each well (triplicate for each concentration), and the DMSO final concentration in culture medium is 0.1% [v/v]. Culture the plates for 3 days.On Day 3, Read luminescent using Multi Label Reader. The software of GraphPad Prism was used to calculate IC50. The graphical curves were fitted using a nonlinear regression model with a sigmoidal dose response.

Ba/F3 CD74-ROS1-L1951R = experiment: as above; type: cell-based; conditions: Mus musculus, BaF3
Experimental: as §2

Ba/F3 CD74-ROS1-S1986F = experiment: as above; type: cell-based; conditions: Mus musculus, BaF3
Experimental: as §2

Ba/F3 CD74-ROS1-S1986Y = experiment: as above; type: cell-based; conditions: Mus musculus, BaF3
Experimental: as §2

[1] = system: Ba/F3 SLC34A2-ROS1-G2032R; experiment: as above; type: cell-based; conditions: Mus musculus, BaF3
Experimental: as §2

[2] = system: Ba/F3 SLC34A2-ROS1-L2026M; experiment: as above; type: cell-based; conditions: Mus musculus, BaF3
Experimental: as §2

Ba/F3 SLC34A2-ROS1 = experiment: as above; type: cell-based; conditions: Mus musculus, BaF3
Experimental: as §2

[3] = system: 27 non-target kinases (MAP4K4 ... INSR, EGFR wild type); experiment: Inhibitory study of 27 non-target kinases; type: biochemical; conditions: except for EGFR wild type
21 GPCR targets = experiment: GPCR agonist screening assay; type: cell-based; conditions: all 21 GPCR targets
Description: In the agonist screening assay, the activity percent at maximum dose of WX-0593 was all less than 50% for the 21 GPCR targets tested.

[4] = Metabolite identification in plasma; type: in vivo, cynomolgus monkey; conditions: oral WX-0593
Description: Under current experimental conditions, 1 metabolite in addition to the parent drug was detected in monkey plasma: a demethylation metabolite, M2 (MW = 554.23, P - CH2). Based on the % peak area from mass spectrometry, the drug exists primarily as the parent drug in the plasma of both male and female monkeys (99.06% in females and 99.47% in males). Metabolite M2 (0.94% in females and 0.53% in males) was a secondary metabolite. Based on the types of metabolites, it is speculated that WX-0593 is mainly metabolized through demethylation after oral administration in monkeys. There was no significant difference in metabolites between female and male monkeys.

[5] = General pharmacology: cardiovascular system; type: in vivo, monkeys
Experimental: […]. Therefore, WX-0593 has a low risk of cardiotoxicity. There were no effects on the CNS and respiratory system in rats at doses of 3, 10, and 30 mg/kg. However, WX-0593 10 and 30 mg/kg may result in benign respiratory rate and decreases in minute ventilation in female rats. There were no effects on the cardiovascular system, blood pressure, ECG parameters or waveforms in monkeys at doses of 5, 10, and 25 mg/kg; 10 and 25 mg/kg may result in mild decreases in heart rate (within the normal range) and PR prolongation and QTc shortening associated with bradycardia within the normal range (no statistical difference when compared to the control arm). No cardiovascular system adverse reactions related to the test product were found. The human equivalent dose (using 60 kg) is 3636 mg/person in CNS, 3636 mg/person in male respiratory system and 363.6 mg/person in female respiratory system, and 607 mg/person in cardiovascular system.

[6] = Reproductive toxicity study; conditions: rat, in vivo
[7] = Repeated-dose toxicity study, 28 days oral gavage
Experimental: Repeated administration for 28 days was carried out. 3, 10, and 30 mg/kg were administered to rats. 1, 3, and 10 mg/kg were administered to cynomolgus monkeys.

COc1cc(N2CCC3(CCN(C)CC3)CC2)ccc1Nc1ncc(Cl)c(Nc2ccccc2P(C)(C)=O)n1 [WX-0593]
IC50 (Ba/F3 ALK-C1156Y): 9 nM | IC50 (Ba/F3 ALK-F1174L): 36 nM | IC50 (Ba/F3 ALK-G1202del): 930 nM | IC50 (Ba/F3 ALK-I1171N): 17.9 nM | IC50 (Ba/F3 ALK-I1171S; first listing (r12)): 32 nM | IC50 (Ba/F3 ALK-I1171S; second listing (r19)): 21.4 nM | IC50 (Ba/F3 ALK-I1171T): 11.3 nM | IC50 (Ba/F3 ALK-L1196M): 36 nM | IC50 (Ba/F3 ALK-T1151Tins): 12 nM | IC50 (Ba/F3 ALK-V1180L): 8.4 nM | IC50 (Ba/F3 CD74-ROS1-D2033N): 33.8 nM | IC50 (Ba/F3 CD74-ROS1-L1951R): 626 nM | IC50 (Ba/F3 CD74-ROS1-S1986F): 22.4 nM | IC50 (Ba/F3 CD74-ROS1-S1986Y): 15.9 nM | IC50 [1]: 584 nM | IC50 [2]: 12 nM | IC50 (Ba/F3 SLC34A2-ROS1): 11 nM | inhibitory activity against non-target kinases [3]: no significant inhibitory activity | activity percent at maximum dose (agonist) (21 GPCR targets): less than 50% | EC50 (21 GPCR targets; highest dose detected): > 133000 nM | % peak area from mass spectrometry in plasma ([4]; female monkeys): 99.06% | % peak area from mass spectrometry in plasma ([4]; male monkeys): 99.47% | effects on cardiovascular system, blood pressure, ECG parameters or waveforms ([5]; 5, 10 and 25 mg/kg): no effects | human equivalent dose, cardiovascular system ([5]; using 60 kg): 607 mg/person | NOAEL as multiple of the effective dose in nude mice [6]: 8 times | NOAEL ([6]; read-out: NOAEL of fertility and early embryo developmental toxicity): 10 mg/kg | human equivalent dose (HED) ([7]; 1/5 of NOAEL, 60 kg/person): 12 mg/person | human equivalent dose ([7]; 1/6 of HNSTD, 60 kg/person): 32 mg/person | highest non-severely toxic dose (HNSTD) ([7]; 28 days oral gavage): greater than 10 mg/kg/day | HNSTD as multiple of the effective dose in nude mice ([7]; cynomolgus monkey, in vivo): 16 times | NOAEL as multiple of the effective dose in nude mice ([7]; cynomolgus monkey, in vivo): 4.8 times
